The results in this text go back to patent US20180057507A1, “INHIBITORS OF DUAL LEUCINE ZIPPER (DLK) KINASE FOR THE TREATMENT OF DISEASE” (Board of Regents, The University of Texas System, priority 2016, published 2018).

In experiment [1] the target is T1, human DLK (Homo sapiens, UniProt Q12852).
T1 sequence (Q12852 1-859): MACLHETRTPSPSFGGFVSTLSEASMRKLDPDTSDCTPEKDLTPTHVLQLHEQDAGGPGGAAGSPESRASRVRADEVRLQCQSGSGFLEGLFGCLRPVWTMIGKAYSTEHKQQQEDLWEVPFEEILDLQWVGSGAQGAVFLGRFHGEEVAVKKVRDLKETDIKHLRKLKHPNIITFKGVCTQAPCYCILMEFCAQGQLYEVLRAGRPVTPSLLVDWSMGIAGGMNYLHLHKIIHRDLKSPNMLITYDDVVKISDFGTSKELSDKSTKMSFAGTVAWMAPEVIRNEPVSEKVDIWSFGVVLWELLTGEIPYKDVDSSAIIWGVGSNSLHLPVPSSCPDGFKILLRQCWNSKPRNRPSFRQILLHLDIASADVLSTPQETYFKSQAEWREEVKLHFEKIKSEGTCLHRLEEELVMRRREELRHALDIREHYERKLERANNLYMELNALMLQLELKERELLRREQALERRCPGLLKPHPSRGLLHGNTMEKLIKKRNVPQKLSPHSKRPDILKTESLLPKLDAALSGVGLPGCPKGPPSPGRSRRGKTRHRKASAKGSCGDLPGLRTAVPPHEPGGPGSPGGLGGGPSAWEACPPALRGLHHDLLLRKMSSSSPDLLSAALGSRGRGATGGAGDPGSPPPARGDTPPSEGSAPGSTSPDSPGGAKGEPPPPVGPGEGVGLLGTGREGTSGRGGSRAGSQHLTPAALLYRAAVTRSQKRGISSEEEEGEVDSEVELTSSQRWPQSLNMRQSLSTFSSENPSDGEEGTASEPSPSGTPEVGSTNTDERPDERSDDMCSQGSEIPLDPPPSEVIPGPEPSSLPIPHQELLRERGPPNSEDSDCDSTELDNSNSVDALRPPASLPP
Put plainly: DLK Kd Determinations (KINOMEscan KdELECT, DiscoveRx). Further details: full length of human DLK (amino acids 1-859); host or cells: transiently transfected HEK293 cells; unpurified extract. Conditions: fusion protein of full length human DLK (amino acids 1-859) and NFkB DNA binding domain; qPCR readout; duplicate. A digest of the protocol: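 Competition binding of full-length human DLK (aa 1-859)-NFkB DBD fusion, DNA-tagged, from HEK293 extracts against an immobilized ligand; 1 h at room temperature, 0.9% DMSO. Bead-bound kinase was quantified by qPCR. Kd came from an 11-point 3-fold series (top 30,000 nM), in duplicate, with Hill slope fixed at −1.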
In general terms: In qPCR the cycle at which signal appears reflects the starting amount.

Experiment [2] deals with T1, human DLK. Put plainly: Phospho-cJun Cellular Assay. Set-up: expressed in transfected cells. To be noted: HEK293 cells stably transfected with Dox-inducible human DLK; p-cJun (Ser63); 5 h compound incubation. Type of experiment: cell-based. Here is the method:
Phospho-cJun Cellular Assay
HEK293 cells stably transfected with a Dox-inducible human DLK were plated into a 384-well plate in 20 μl (40,000 cells/well) of DMEM medium (without phenol red) containing 10% fetal bovine serum, 1.5 μg/ml doxycycline and 1 μg/ml puromycin. The cells as negative control were grown in the absence of doxycycline. The plate was incubated at 37° C., 5% CO2 for 20 h, before DMSO (control) or compounds diluted in medium were added. The cells were incubated at 37° C. for an additional 5 h, followed by lysis and the addition detection antibodies from p-cJun (Ser63) cellular assay kit (Cisbio) per manufacturer protocol. The standard dose response curves were fitted by Genedata Screener software using the variable-slope model: Signal=Signalnegative control+(SignalDMSO control−Signalnegative control)/(1+(IC50/Dose)̂Hill slope). Only signal and dose in the equation were treated as known values.

With `CC(C)c1nc(-c2cnc(N)c(OC(F)(F)F)c2)cn1[C@H]1[C@@H]2CC(N3CCOCC3)C[C@@H]21` (single isomer, unassigned) [Example 19a], the Kd at human DLK [1] is 76 nM. Besides, half-maximal inhibition at human DLK [2] (IC50) required 666 nM.

Consider `CC(C)c1nc(-c2cnc(N)c(OC(F)(F)F)c2)cn1[C@H]1[C@@H]2CC(N3CCOCC3)C[C@@H]21` (single isomer, unassigned) [Example 19b], for which the Kd on human DLK [1] was 38 nM. This molecule yielded an IC50 against human DLK [2] of 493 nM.

In the case of `CC(C)c1nc(-c2cnc(N)c(OC(F)(F)F)c2)cn1[C@H]1[C@@H]2CC(N3CCCOCC3)C[C@@H]21` (single isomer, unassigned) [Example 20a, 5-(1-(3-(1,4-oxazepan-4-yl)bicyclo[3.1.0]hexan-6-yl)-2-isopropyl-1H-imidazol-4-yl)-3-(trifluoromethoxy)pyridin-2-amine], the affinity on human DLK [1], expressed as Kd, was 15 nM. In addition, the half-maximal inhibitory concentration (IC50) at human DLK [2] turned out to be 965 nM.

In the case of `CC(C)c1nc(-c2cnc(N)c(OC(F)(F)F)c2)cn1[C@H]1[C@@H]2CC(N3CCCOCC3)C[C@@H]21` (single isomer, unassigned) [Example 20b, 5-(1-(3-(1,4-oxazepan-4-yl)bicyclo[3.1.0]hexan-6-yl)-2-isopropyl-1H-imidazol-4-yl)-3-(trifluoromethoxy)pyridin-2-amine], at human DLK [1], the Kd is 44 nM. Inhibition against human DLK [2] was half-maximal at 1050 nM (IC50).

Regarding `CC(C)c1nc(-c2cnc(N)c(C(F)(F)F)c2)cn1[C@H]1[C@@H]2CC(O)C[C@@H]21` (single isomer, unassigned) [Example 48a, 6-(4-(6-amino-5-(trifluoromethyl)pyridin-3-yl)-2-isopropyl-1H-imidazol-1-yl)bicyclo[3.1.0]hexan-3-ol], binding at human DLK [1] was put at a Kd of 84 nM. Moreover, the half-inhibitory concentration (IC50) at human DLK [2] turned out to be 1590 nM.

With `CC(C)c1nc(-c2cnc(N)c(C(F)(F)F)c2)cn1[C@H]1[C@@H]2CC(O)C[C@@H]21` (single isomer, unassigned) [Example 48b, 6-(4-(6-amino-5-(trifluoromethyl)pyridin-3-yl)-2-isopropyl-1H-imidazol-1-yl)bicyclo[3.1.0]hexan-3-ol], the Kd on human DLK [1] turned out to be 59 nM. For the same molecule, the half-maximal inhibitory concentration (IC50) against human DLK [2] was determined as 1240 nM.

As for `CC(C)c1nc(-c2cnc(N)c(C(F)(F)F)c2)cn1[C@H]1[C@@H]2CC(N3CCOCC3)C[C@@H]21` (single isomer, unassigned) [Example 127a], the affinity on human DLK [1], expressed as Kd, was 52 nM. Moreover, it took 939 nM to reach half-maximal inhibition against human DLK [2] (IC50).

`CC(C)c1nc(-c2cnc(N)c(C(F)(F)F)c2)cn1[C@H]1[C@@H]2CC(N3CCOCC3)C[C@@H]21` (single isomer, unassigned) [Example 127b] displayed a Kd on human DLK [1] of 61 nM. This molecule also displayed a half-maximal inhibitory concentration (IC50) against human DLK [2] of 633 nM.

On human DLK [2], `CN1CCN(C2C[C@@H]3[C@H](C2)[C@H]3n2cc(-c3cnc(N)c(C(F)(F)F)c3)nc2CC2CC2)CC1` (single isomer, unassigned) [Example 161b, 5-(2-(cyclopropylmethyl)-1-(3-(4-methylpiperazin-1-yl)bicyclo[3.1.0]hexan-6-yl)-1H-imidazol-4-yl)-3-(trifluoromethyl)pyridin-2-amine] showed a half-maximal inhibitory concentration (IC50) of 629 nM.

`Nc1ncc(-c2cn([C@H]3[C@@H]4CC(N5CCN(CCF)CC5)C[C@@H]43)c(CC3CC3)n2)cc1C(F)(F)F` (single isomer, unassigned) [Example 162a, 5-(2-(cyclopropylmethyl)-1-(3-(4-(2-fluoroethyl)piperazin-1-yl)bicyclo[3.1.0]hexan-6-yl)-1H-imidazol-4-yl)-3-(trifluoromethyl)pyridin-2-amine] yielded an IC50 at human DLK [2] of 1040 nM.

`CC(C)c1nc(-c2cnc(N)c(C(F)(F)F)c2)cn1[C@H]1C[C@@H](N2CCOCC2)C1` [Example 44, 5-(2-isopropyl-1-((1s,3s)-3-morpholinocyclobutyl)-1H-imidazol-4-yl)-3-(trifluoromethyl)pyridin-2-amine]: the 50% inhibitory concentration (IC50) at human DLK [2] worked out at 7690 nM.

Usually Kd stands for the equilibrium constant for the complex coming apart. Higher therefore signals a looser complex. The term IC50 denotes the midpoint of a concentration-inhibition curve. Lower therefore signals inhibition by little substance.
